This note sets out measurements from US20130150346A1, “Use of FAAH Inhibitors for Treating Parkinson's Disease and Restless Legs Syndrome” (Ironwood Pharmaceutical, Inc., priority 2010, published 2013).

One experiment concerns MPTP-lesioned macaques. Put plainly: Motor activity (total activity, high activity time and counts) in MPTP-lesioned macaques treated with URB597 and L-DOPA. The format is in vivo, cynomolgus monkeys (Macaca fascicularis).
Experiment [1] deals with MPTP-lesioned marmosets. Put plainly: Rating of parkinsonian disability, dyskinesia and psychosis in MPTP-lesioned marmosets. The format is in vivo, common marmosets (Callithrix jacchus). The conditions noted are these: L-DOPA 20 mg/kg s.c. alone, summed 2-4 h. How it is done:
(§1) Six common marmosets (Callithrix jacchus; female; weight, 350-500 g (Harlan, Madison, Wis., USA)) were kept under conditions of controlled temperature (25±2° C.) and a 12-hour light/dark cycle (lights on 6:30 a.m.). Animals were group housed and had access to food, fresh-fruit supplements and water ad libitum and their home cage environment was enriched with primate toys, perches and auditory stimuli. Prior to start of studies, animals were acclimatized to handling, blood collection and administration of treatments (oral syringe feeding and subcutaneous injection) as well as transfer to observation cages for assessment of behavior. A parkinsonian syndrome was induced by once-daily subcutaneous administration of MPTP hydrochloride (Sigma, Canada; 2 mg/kg base concentration in 0.9% saline) for 5 consecutive days. Following this, animals were allowed to recover for 12 weeks to allow parkinsonian symptoms to develop and stabilize. […] Treatment-related complications including dyskinesia and psychosis-like behaviors were evoked by twice-daily treatment with L-DOPA p.o. (as Prolopa®, Roche Canada, Ontario, equivalent to 15 mg/kg L-DOPA and 3.5 mg/kg benserazide) for a minimum of 30 days. […] Disord. 21:839-846; Visanji et al. (2008) Mov. Disord. 23:1922-1925; Visanji et al (2009) Neurobiol Dis. 35: 184-192]. After this time, the animals were used in several studies to evaluate potential anti-parkinsonian and anti-dyskinetic agents. A minimum period of two weeks was allowed between completing any prior study and commencing this study, a period in excess of ten half-lives since administration of any previously employed experimental drug. Throughout the course of the study, on days not requiring plasma sampling or behavioral observations, animals were treated once daily with oral L-DOPA therapy, given at 10:00 a.m. to maintain stable levels of complications. Marmosets treated with MPTP as described in this example are referred to as MPTP-lesioned marmosets.
(§2) To assess the effect of treatment on plasma FAAH substrate level, total activity, high activity time and count, data were analyzed using a parametric repeated-measures (RM) 1-way analysis of variance (ANOVA) followed by a Student Newman-Keuls Multiple Comparison post hoc test. To assess the effect of treatment on plasma L-DOPA level a paired, two-tailed t-test was used. All FAAH (AEA, OEA, PEA) subbstrate and L-DOPA plasma level data and activity data are presented as the group mean and SEM For measures of parkinsonian disability, dyskinesia and psychosis, data were analyzed via Friedman's test with Dunn's Multiple Comparison post hoc test. […] In all cases, p<0.05 was taken to represent a significant difference.
(§3) MPTP hydrochloride (Sigma, Canada) was dissolved in 0.9% NaCl sterile solution to a concentration of 0.2 mg/ml (freebase) and administered at 1 ml/kg. Maintenance L-DOPA, administered as Prolopa® capsules (Roche, Mississauga, ON, Canada) containing 50 mg L-DOPA and 12.5 mg benserazide (freebase) was dissolved in Gatorade sports beverage (The Gatorade Company, Chicago, Ill.) prior to oral administration by syringe at a volume of 10 ml/kg. On days of behavioral assessment, L-DOPA (20 mg/kg, freebase) was prepared from the methyl ester form (Sigma, Canada) in combination with benserazide hydrochloride (5 mg/kg, freebase, Sigma, Canada) dissolved in 0.9% sterile saline containing 0.1% ascorbate (Sigma, Canada) and 0.05% absolute ethanol. URB597 (Cayman Chemical, Ann Arbor, Mich.) was formulated in a vehicle containing 50% corn oil (Professional Compounding Centers of America (PCCA), Houston, Tex.) and 50% nutritional drink Ensure™ (Abbott Nutrition, Chicago, Ill.) to make the suspension palatable for marmoset oral dosing. Requisite amounts of URB597 were weighed into sterile 50 ml polypropylene tubes (for the 3, 10, 30 and 60 mg/kg doses, 12, 40, 120 and 240 mg were weighed respectively). Then, 10 ml Corn oil was added and mixed until homogenous.

Experiment [2] deals with MPTP-lesioned marmosets. Put plainly: Motor activity (passive infra-red sensors: total activity, high activity counts and time) in MPTP-lesioned marmosets. The experiment is classed as in vivo, common marmosets (Callithrix jacchus). The protocol: as §1, §2, §3
Where [3] appears, read: L-DOPA 20 mg/kg s.c. alone, 2-4 h, mean±SEM, n=6.
Where [4] appears, read: L-DOPA 20 mg/kg s.c. alone, 2-4 h, p<0.001.
Where [5] appears, read: L-DOPA 20 mg/kg s.c. alone, 2-4 h, p<0.05.

For `N[C@@H](Cc1ccc(O)c(O)c1)C(=O)O` [L-DOPA, 3,4-dihydroxyphenylalanine], in the experiment on MPTP-lesioned macaques (L-DOPA p.o. (30 to 45 mg/kg), 1 to 3.5 hrs after administration), the “total activity counts, high activity time and counts compared to normal, unlesioned macaques” value is given as “higher”. Further, the “total activity counts, high activity time and high activity counts compared to normal macaques” value in the experiment with MPTP-lesioned macaques (L-DOPA p.o. alone, between 2 and 3 h after L-DOPA) is recorded as “significantly higher”. Further, the “psychosis score (median)” value in the experiment with MPTP-lesioned marmosets [1] (IQR 0-0 as printed, n=6) came out at 0. In addition, the “dyskinesia score (median)” value in the experiment with MPTP-lesioned marmosets [1] (IQR 10-29, n=6) stood at 20. The “parkinsonian disability score (median)” value in the experiment on MPTP-lesioned marmosets [1] (maximum 432, IQR 57-111, n=6) is given as 80. Besides, the total activity counts in the experiment with MPTP-lesioned marmosets [2] (L-DOPA 20 mg/kg s.c. alone (vehicle p.o.), peak dose period 2-4 h, mean±SEM, n=6) was determined as 2782±682 counts. In addition, in the experiment with MPTP-lesioned marmosets [2] (setting [3]), the high activity counts is listed as 2170±778 counts and the high activity time turned out to be 53.3 ± 15.2 min. For the same molecule, in the experiment with MPTP-lesioned marmosets [2] (setting [4]), the “increase in high activity time compared to normal, non-MPTP-lesioned animals” value is recorded as 167% and the “increase in total activity compared to vehicle (s.c.)-treated, MPTP-lesioned animals” value is reported as 379%. In addition, in the experiment with MPTP-lesioned marmosets [2] (setting [5]), the “increase in high activity counts compared to normal, non-MPTP-lesioned animals” value was 120% and the “increase in total activity compared to non-treated, non-MPTP-lesioned (normal) animals” value is 77%. Moreover, in the experiment with MPTP-lesioned marmosets [2] (L-DOPA 20 mg/kg s.c. alone, 6 h time course, 30 min intervals), the “period following drug administration in which total activity was significantly increased compared to vehicle (s.c.)-treated animals” value amounted to 3.5 h.
